The results in this text go back to ChEMBL document CHEMBL6103545, “Discovery of GS-2278, a Potent and Selective LPAR1 Antagonist for the Treatment of Idiopathic Pulmonary Fibrosis” (J Med Chem, 2025).

Series [1] can be described thus: AUC (0 to 24 hrs) in cynomolgus monkey at 5 mg/kg, po measured after 24 hrs by LC/MS/MS analysis. It is filed as ADME, organism-based, Macaca fascicularis. The following applies: in vivo.
For another series, the target named is T1, Cytochrome P450 2C8 (Homo sapiens, UniProt P10632).
T1 sequence (P10632 whole entry): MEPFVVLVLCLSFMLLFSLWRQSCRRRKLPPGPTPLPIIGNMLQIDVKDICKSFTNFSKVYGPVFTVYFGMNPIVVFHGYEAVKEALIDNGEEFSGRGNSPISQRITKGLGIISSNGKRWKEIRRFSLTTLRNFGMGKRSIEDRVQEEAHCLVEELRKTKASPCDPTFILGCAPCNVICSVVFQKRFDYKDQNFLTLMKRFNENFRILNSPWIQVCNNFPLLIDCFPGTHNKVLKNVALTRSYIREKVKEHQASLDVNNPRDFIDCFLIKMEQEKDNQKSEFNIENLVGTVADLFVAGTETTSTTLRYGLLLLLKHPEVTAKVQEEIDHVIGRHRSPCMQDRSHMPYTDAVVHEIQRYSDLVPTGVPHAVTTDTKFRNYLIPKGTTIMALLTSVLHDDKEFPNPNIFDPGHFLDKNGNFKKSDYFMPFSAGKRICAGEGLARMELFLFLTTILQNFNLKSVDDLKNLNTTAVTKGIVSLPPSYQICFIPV
Put plainly: Inhibition of CYP2C8 (unknown origin) using midazolam as substrate. The format is ADME.

Series [2] is described as follows: Mutagenicity in Salmonella typhimurium TA98 by Ames assay. The following applies: salmonella enterica subsp. enterica serovar typhimurium. It is filed as toxicity. (In general: The Ames test uses bacterial strains that need an amino acid and regain growth without it when mutated back.)
Series [3] is described as follows: Unbound drug concentration in CD-1 mouse brain at 2 uM incubated for 5 hrs by LC-MS analysis. The format is ADME, tissue-based.
Series [4] in a line: Toxicity in Beagle dog CNS at 30 mg/kg/day, po measured after 7 days by radiotelemetry. The following applies: in vivo, 168 h, time 7 day. The format is organism-based, Canis lupus familiaris.
A short description of series [5]: Toxicity in Beagle dog CNS at 60 mg/kg/day, po measured after 7 days by radiotelemetry. It is filed as organism-based, Canis lupus familiaris. The following applies: in vivo, 168 h, time 7 day.
The target of series [6] is Lysophosphatidic acid receptor 1 (Homo sapiens, UniProt Q92633). Put plainly: Antagonist activity at human LPA1 receptor expressed in HEK293 cells assessed as Galpha13 effector recruitment incubated for 10 mins by BRET assay. The format is functional, cell-based.
Sequence of Lysophosphatidic acid receptor 1 (Q92633 whole entry): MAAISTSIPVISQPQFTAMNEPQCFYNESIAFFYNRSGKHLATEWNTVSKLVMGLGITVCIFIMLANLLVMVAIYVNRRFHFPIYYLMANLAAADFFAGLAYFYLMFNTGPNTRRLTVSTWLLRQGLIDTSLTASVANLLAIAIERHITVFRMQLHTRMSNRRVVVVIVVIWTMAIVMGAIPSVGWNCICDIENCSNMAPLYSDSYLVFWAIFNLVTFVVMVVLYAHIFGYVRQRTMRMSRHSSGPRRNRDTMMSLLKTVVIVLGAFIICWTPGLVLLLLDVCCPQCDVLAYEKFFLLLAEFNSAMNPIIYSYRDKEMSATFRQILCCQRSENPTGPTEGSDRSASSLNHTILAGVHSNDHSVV
The nature of series [7]: Plasma protein binding in Beagle dog assessed as unbound fraction at 2 uM incubated for 24 hrs by LC-MS analysis. The format is ADME, cell-free, Canis lupus familiaris.
The target of series [8] is T2, Solute carrier organic anion transporter family member 1B3 (Homo sapiens, UniProt Q9NPD5).
T2 sequence (Q9NPD5 whole entry): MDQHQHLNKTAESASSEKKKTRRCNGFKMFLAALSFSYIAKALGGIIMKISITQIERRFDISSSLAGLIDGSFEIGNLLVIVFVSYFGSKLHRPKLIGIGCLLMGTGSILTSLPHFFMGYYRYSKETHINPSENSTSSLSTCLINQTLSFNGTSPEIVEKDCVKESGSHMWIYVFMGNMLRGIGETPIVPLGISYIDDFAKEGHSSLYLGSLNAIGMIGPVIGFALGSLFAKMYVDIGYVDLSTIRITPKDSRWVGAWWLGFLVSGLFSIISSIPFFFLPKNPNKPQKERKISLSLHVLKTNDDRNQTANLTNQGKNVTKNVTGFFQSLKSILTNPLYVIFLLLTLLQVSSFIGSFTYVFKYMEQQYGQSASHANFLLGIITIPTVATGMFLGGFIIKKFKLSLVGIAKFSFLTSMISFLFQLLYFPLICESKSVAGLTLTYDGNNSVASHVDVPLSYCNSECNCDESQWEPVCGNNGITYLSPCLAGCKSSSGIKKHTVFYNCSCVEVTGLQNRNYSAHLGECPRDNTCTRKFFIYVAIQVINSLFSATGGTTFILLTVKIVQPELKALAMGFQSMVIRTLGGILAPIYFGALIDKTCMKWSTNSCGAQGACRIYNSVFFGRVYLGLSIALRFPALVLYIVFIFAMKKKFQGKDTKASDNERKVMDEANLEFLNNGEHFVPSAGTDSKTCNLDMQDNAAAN
Put plainly: Inhibition of OATPB1P3 in human hepatocyte by LC-MS analysis. It is filed as cell-based.

Turning to `C[C@@H](OC(=O)Nc1c(-c2ccc(NC(=O)c3cnc(C(F)(F)F)nc3)cn2)nnn1C)c1cc(F)cnc1F`, the area under the curve AUC(0-t) (as a rule, exposure summed from dosing to a finite time, without extrapolation to infinity) at 24 h in [1] was 8.9 µM·h. For the same compound, the “inhibition (INH)” value at Cytochrome P450 2C8 is on record as “Not_active”. Moreover, the Activity result in series [2], in [4] and in [5] was “Non-toxic” in each case. In addition, the fraction unbound (commonly the share of the substance not bound to proteins or other matrix) at 5 h, 2 µM in [3] was 0.133. Also, the EC50 (in general, the midpoint of the concentration-response curve) in series [6] amounted to 0.071 µM. Moreover, the fraction unbound at 24 h, 2 µM in series [7] stood at 0.095. Further, it took 15 µM to reach half-maximal inhibition in [8] (IC50).
